# Values quoted from earlier work as cited in patent publication US9050307B2, “Method for the preparation of a levothyroxine solution” (EMP Pharma GmbH, priority 2011, dated 2015).
smiles,measurement,setting,value
"N[C@@H](Cc1cc(I)c(Oc2cc(I)c(O)c(I)c2)c(I)c1)C(=O)[O-].[Na+] [Levothyroxine sodium, Sodium (2S)-2-amino-3-[4-(4-hydroxy-3,5-diiodophenoxy)-3,5-diiodophenyl]propanoate]",Solubility in ethanol (96 percent),ethanol (96 percent),slightly soluble
same,Solubility in water,water,very slightly soluble
